In patent US10676474B2, “1,6-naphthyridine derivatives as CDK4/6 inhibitor” (CSTONE PHARMACEUTICALS, priority 2016, dated 2020):

Legend:
[1] = test system: LU-01-0393 lung cancer patient-derived tumor tissue xenograft (PDX); assay: In vivo pharmacodynamic study (1), LU-01-0393 PDX; design: species or system BALB/c nude mice; details: 60 mg/kg orally daily
Procedure: The in vivo pharmacodynamic experiments were performed on the BALB/c nude mice implanted subcutaneously with the LU-01-0393 lung cancer patient-derived tumor tissue xenograft (PDX).
BALB/c nude mice, female, 6-8 weeks, weighing approximately 17-21 g, were placed in a single ventilated cage (5 mice per cage) under a special pathogen free environment. All of the cages, beddings and water were disinfected before use. All of the animals were permitted free access to a standard certified commercial laboratory diet. A total of 36 mice purchased from Vital River Laboratory Animal Co., LTD, Beijing were used for the study. Each mouse was implanted subcutaneously with a tumor LU-01-0393 FP4 section (20-30 mm^3) in the right back for tumor growth. The dosing initiated when the average tumor volume reached about 150-200 mm^3. The tumor volume was measured twice a week using a two-dimensional caliper, and the volume was measured in mm^3, calculated by the following the formula: V=0.5 a×b^2, wherein, a and b were the long and short diameters of the tumor, respectively. The antitumor efficacy was determined by dividing the average increase in the tumor volume of the animals treated with the compound by the average increase in the tumor volume of the untreated animals.

NCI-H358 cells = assay: Cell viability assay NCI-H358 (CellTiter-Glo); assay type: cell-based; details: Homo sapiens, 168 h; NCI-H358, incubated for 7 days
Procedure: The NCI-H358 cell line is from the cell bank of the Department of Biology of WuXi Apptec Co. Ltd. Envision Multi-Label Analyzer (PerkinElmer).
1) 100 μL of phosphate buffer solution was added to the peripheral wells of the 384-well plate and 40 μL of NCI-H358 cell suspension was added to the other wells containing 250 NCI-H358 cells. The cell plate was then placed in a carbon dioxide incubator and incubated overnight.
2) A 3-fold gradient dilution was subjected to the tested compounds using Echo. Each compound was diluted by 10 concentration gradients (diluted from 25 μM to 1.27 nM), 100 nL of which was added to the corresponding wells of the cell plate. The cell plate was then placed in a carbon dioxide incubator and incubated for 7 days.
3) 20 μL of Promega CellTiter-Glo reagent was added to each well of the cell plate, and shaken for 10 minutes away from light at room temperature to stabilize the luminescence signal. Readings were performed using a PerkinElmer Envision Multi-label Analyzer.
Table 1 provides the inhibitory activity of the compounds of the present invention against the proliferation of H358 cells.

CDK4/cyclin D1 = target: T1, CDK4/cyclin D1 (Homo sapiens, UniProt P11802); assay: Enzyme activity assay CDK4/cyclin D1 (Lance Ultra); assay type: biochemical; details: 0.3 nM CDK4/cyclin D1, 350 μM ATP, 180 minutes
T1 construct: purchased Life technology
T1 sequence (P11802 whole entry): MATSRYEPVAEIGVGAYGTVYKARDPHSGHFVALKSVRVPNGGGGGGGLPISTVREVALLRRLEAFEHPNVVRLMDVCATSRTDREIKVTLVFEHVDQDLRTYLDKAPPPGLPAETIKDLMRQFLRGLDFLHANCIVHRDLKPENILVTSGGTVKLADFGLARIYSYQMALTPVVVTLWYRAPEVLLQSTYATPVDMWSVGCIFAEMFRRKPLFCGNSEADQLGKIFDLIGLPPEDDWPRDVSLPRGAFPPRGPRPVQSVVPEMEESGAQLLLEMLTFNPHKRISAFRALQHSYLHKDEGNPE
T1 sequence (P24385 whole entry partner): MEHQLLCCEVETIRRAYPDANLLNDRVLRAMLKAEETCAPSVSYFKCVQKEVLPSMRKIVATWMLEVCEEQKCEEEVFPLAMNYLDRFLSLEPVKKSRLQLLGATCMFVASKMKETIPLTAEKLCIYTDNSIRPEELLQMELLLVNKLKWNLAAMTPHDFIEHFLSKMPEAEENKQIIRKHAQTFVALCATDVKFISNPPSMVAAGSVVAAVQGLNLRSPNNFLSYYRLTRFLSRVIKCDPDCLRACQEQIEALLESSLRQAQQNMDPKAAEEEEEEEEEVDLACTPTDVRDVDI
Procedure: (§1) CDK4/cyclin D1, CDK6/cyclin D1 (Life technology). ULight labeled polypeptide substrates ULight-4E-BP1 and ULight-MBP (PerkinElmer). Europium labeled anti-myelin basic protein antibody and europium labeled rabbit-derived antibody (PerkinElmer). Envision Multi-label Analyzer (PerkinElmer) for signal detection.
(§2) They were respectively dissolved in an enzyme buffer solution comprising: 50 mM hydroxyethylpiperazine ethanesulfuric acid solution at pH 7.5, 1 mM ethylenediaminetetraacetic acid, 10 mM magnesium chloride, 0.01% Brij-35, 2 mM dithiothreitol. After the reaction was begun, the OptiPlate 384-well plate was sealed with a top heat seal film TopSeal-A, and incubated at room temperature for 180 minutes.
(§3) The termination buffer solution of the enzymatic reaction was prepared, and EDTA was dissolved in a 1-fold diluted assay buffer solution. The reaction was terminated and incubated at room temperature for 5 minutes. 5 μL of the assay mixed solution (prepared with europium labeled anti-myelin basic protein antibody and europium labeled rabbit-derived antibody, respectively) was added to the reactions of CDK4/cyclin D1 and CDK6/cyclin D1, respectively, and incubated at room temperature for 60 minutes. The reaction signal was detected by Envision according to the time-resolved fluorescence resonance energy transfer theory.

CDK6/cyclin D1 = target: T2, CDK6/cyclin D1 (Homo sapiens, UniProt Q00534); assay: Enzyme activity assay CDK6/cyclin D1 (Lance Ultra); assay type: biochemical; details: 0.8 nM CDK6/cyclin D1, 250 μM ATP, 180 minutes
T2 construct: purchased Life technology
T2 sequence (Q00534 whole entry): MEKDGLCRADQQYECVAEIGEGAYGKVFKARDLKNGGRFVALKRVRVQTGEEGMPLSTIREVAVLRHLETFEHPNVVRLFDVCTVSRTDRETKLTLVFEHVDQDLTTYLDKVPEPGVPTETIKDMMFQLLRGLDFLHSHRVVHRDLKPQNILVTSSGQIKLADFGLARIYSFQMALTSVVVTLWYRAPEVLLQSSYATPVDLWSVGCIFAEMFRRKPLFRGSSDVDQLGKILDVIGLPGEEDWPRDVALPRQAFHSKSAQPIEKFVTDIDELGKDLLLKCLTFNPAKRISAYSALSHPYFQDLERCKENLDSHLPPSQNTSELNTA
T2 sequence (P24385 whole entry partner): as the sequence (P24385 whole entry partner) above
Procedure: as §1
as §2, with “started,” for “begun,”, “TopSeal-A” for “TopSeal-A,”
as §3

| IC50 (NCI-H358 cells) [nM] | IC50 (CDK4/cyclin D1) [nM] | IC50 (CDK6/cyclin D1) [nM] | SMILES | Gross tumor volume Day 0 ([1]; Day 0) [mm^3] | Gross tumor volume Day 7 ([1]; Day 7) [mm^3] | Gross tumor volume Day 14 ([1]; Day 14) [mm^3] | Gross tumor volume Day 20 ([1]; Day 20) [mm^3] |
| --- | --- | --- | --- | --- | --- | --- | --- |
|  |  |  | CC(=O)c1c(C)c2cnc(Nc3cnc(N4CCNCC4)cn3)cc2n(C2CCCC2)c1=O [Example 1, 3-acetyl-1-cyclopentyl-4-methyl-7-[(5-piperazin-1-ylpyrazin-2-yl)amino]-1,6-naphthyridin-2-one] | 144 | 132 | 182 | 212 |
| 153 | 8.62 | 4.66 | CC(=O)c1c(C)c2cnc(Nc3cnc(N4CCN(CCO)CC4)cn3)cc2n(C2CCCC2)c1=O [Example 33] |  |  |  |  |
| 278 | 5.6 | 3.1 | CC(=O)c1c(C)c2cnc(Nc3cnc(N4CCN(C(C)C)[C@@H](C)C4)cn3)cc2n(C2CCCC2)c1=O [Example 11] |  |  |  |  |
| 196 | 9.1 | 3.4 | CC(=O)c1c(C)c2cnc(Nc3cnc(N4CCN[C@@H](C)C4)cn3)cc2n(C2CCCC2)c1=O [Example 9, 3-acetyl-1-cyclopentyl-4-methyl-7-[[5-[(3S)-3-methylpiperazin-1-yl]pyrazin-2-yl]amino]-1,6-naphthyridin-2-one] |  |  |  |  |
| 262 | 5.7 | 3.1 | CC(=O)c1c(C)c2cnc(Nc3cnc(N4CCN(C(C)C)C(C)(C)C4)cn3)cc2n(C2CCCC2)c1=O [Example 15] |  |  |  |  |
| 197 | 7.1 | 2.4 | CC(=O)c1c(C)c2cnc(Nc3cnc(N4CCN(C)C(C)(C)C4)cn3)cc2n(C2CCCC2)c1=O [Example 14] |  |  |  |  |
| 189 | 5.06 | 2.97 | CC(=O)c1c(C)c2cnc(Nc3cnc(N4CCN(CCN)CC4)cn3)cc2n(C2CCCC2)c1=O [Example 35] |  |  |  |  |
| 295 | 8.3 | 3.5 | CC(=O)c1c(C)c2cnc(Nc3cnc(C4CCNCC4)cn3)cc2n(C2CCCC2)c1=O [Example 28] |  |  |  |  |

| SMILES | IC50 (NCI-H358 cells) [nM] | IC50 (CDK4/cyclin D1) [nM] | IC50 (CDK6/cyclin D1) [nM] | Gross tumor volume Day 0 ([1]; Day 0) [mm^3] | Gross tumor volume Day 7 ([1]; Day 7) [mm^3] | Gross tumor volume Day 14 ([1]; Day 14) [mm^3] | Gross tumor volume Day 20 ([1]; Day 20) [mm^3] |
| --- | --- | --- | --- | --- | --- | --- | --- |
| CC(=O)c1c(C)c2cnc(Nc3cnc(N4CC5CCC(C4)N5C)cn3)cc2n(C2CCCC2)c1=O [Example 19] | 214 | 7 | 3.7 |  |  |  |  |
